Counter-ions that a name gives are not always drawn. A value given as a limit tells only on which side of the number the result lay.

The nature of series [1]: Cytotoxicity against MDCK cells after 48 hrs by MTT assay. The class given is cell-based, Canis lupus familiaris. As to conditions: dog, read-out: CTD50. On the technique in general: Tetrazolium assays rely on reduction of a dye to a coloured formazan, in cell work by metabolically active cells.
Series [2] is described as follows: Antiviral activity against Influenza A virus (A/California/07/09(H1N1)) infected in MDCK cells assessed as inhibition of viral replication after 48 hrs by hemagglutination test. The class given is functional, Influenza A virus (A/California/07/2009(H1N1)). As to conditions: read-out: ED50 (the source's name).
The test system of series [3] is Influenza A virus (A/California/07/09(H1N1)). The series can be described thus: Selectivity index, ratio of CTD50 for MDCK cells to ED50 for Influenza A virus (A/California/07/09(H1N1)). The class given is toxicity. As to conditions: dog, read-out: Selectivity Index.
For series [4], the system named is Influenza A virus. The series can be described thus: Antiviral activity against Influenza A virus (A/Puerto Rico/8/34(H1N1)) infected in MDCK cells assessed as inhibition of viral replication after 48 hrs by hemagglutination test. In kind it is functional. The following applies: A/Puerto Rico/8/1934(H1N1), read-out: ED50 (the source's name).
Series [5] has as its system Influenza A virus (A/Puerto Rico/8/34(H1N1)). Nature of the series: Selectivity index, ratio of CTD50 for MDCK cells to ED50 for Influenza A virus (A/Puerto Rico/8/34(H1N1)). In kind it is toxicity. The following applies: dog, read-out: Selectivity Index.

In the case of `CCCCCCCCCCCCCCCCCC/N=C1\C[C@H]2CC[C@]1(C)C2(C)C`, the CC50 at 48 h in series [1] was more than 744 µM. The EC50 in series [2] (Influenza A virus, MDCK, 48 h) is 744 µM; in series [4], more than 744 µM. The results for the selectivity ratio in series [3] and in series [5] were more than 1 and less than 1, respectively.
Turning to `CCCCC/N=C1\C[C@H]2CC[C@]1(C)C2(C)C`, the CC50 at 48 h in series [1] amounted to 801 µM. For the same compound, the EC50 in series [2] (Influenza A virus, MDCK, 48 h) stood at 7.7 µM; in series [4], 12.2 µM. Besides, the selectivity ratio in series [3] worked out at 104; in series [5], 66.
On to `CCCCCCCCCCCC/N=C1\C[C@H]2CC[C@]1(C)C2(C)C`, for which the CC50 at 48 h in series [1] amounted to 62.1 µM. The EC50 in series [2] (Influenza A virus, MDCK, 48 h) is 15.7 µM; in series [4], more than 37.6 µM. Moreover, the results for the selectivity ratio in series [3] and in series [5] were 4 and less than 2, respectively.
`CCC/N=C1\C[C@H]2CC[C@]1(C)C2(C)C`: the CC50 at 48 h in series [1] is more than 2590 µM. Besides, the EC50 in series [2] (Influenza A virus, MDCK, 48 h) amounted to 19.7 µM; in series [4], 4.1 µM. Also, the selectivity ratio is more than 131 in series [3] and more than 632 in series [5].
For `CCCCCCCC/N=C1\C[C@H]2CC[C@]1(C)C2(C)C`, in series [1], the CC50 at 48 h amounted to 97.3 µM. Also, the EC50 in series [2] (Influenza A virus, MDCK, 48 h) was 64.6 µM; in series [4], 9.9 µM. Besides, the selectivity ratio in series [3] turned out to be 2; in series [5], 10.
As for `CCCCCCCCCC/N=C1\C[C@H]2CC[C@]1(C)C2(C)C`, the CC50 at 48 h in series [1] amounted to 50.9 µM. For the same compound, the EC50 in series [2] (Influenza A virus, MDCK, 48 h) amounted to 17.2 µM; in series [4] it was 10.3 µM. The selectivity ratio in series [3] is 3; in series [5], 5.
For `CCCCCC/N=C1\C[C@H]2CC[C@]1(C)C2(C)C`, in that order: 468 µM, 26 µM, 29.8 µM, 18 and 16.
Consider `CC1(C)[C@@H]2CC[C@@]1(C)/C(=N/C1CCCCC1)C2`, for which the CC50 at 48 h in series [1] is more than 1290 µM. Further, the EC50 in series [2] (Influenza A virus, MDCK, 48 h) was 55.4 µM; in series [4], 15.5 µM. For the same compound, the selectivity ratio in series [3] is more than 23; in series [5], more than 83.
Turning to `CC(N)[C@@H]1C[C@H]2CC[C@@H]1C2` (some centres undefined), the CC50 at 48 h in series [1] lay within 1260 to 1270 µM. The EC50 was 206 to 209 µM in series [2] (Influenza A virus, MDCK, 48 h) and 230 µM in series [4].
As to `CC1(C)[C@@H]2CC[C@@]1(C)/C(=N/C1CC1)C2`, the CC50 at 48 h in series [1] was determined as 1660 µM. The EC50 is 592 µM in series [2] (Influenza A virus, MDCK, 48 h) and 738 µM in series [4]. In addition, the results for the selectivity ratio in series [3] and in series [5] were 3 and 2, respectively.
For the compound `CCCC/N=C1\C[C@H]2CC[C@]1(C)C2(C)C`, the CC50 at 48 h in series [1] is 2420 µM. The EC50 in series [2] (Influenza A virus, MDCK, 48 h) was 7.7 µM; in series [4], 5.8 µM. The selectivity ratio in series [3] turned out to be 312; in series [5] it was 417.
As for `CC1(C)[C@@H]2CC[C@@]1(C)/C(=N/CCO)C2`, the CC50 at 48 h in series [1] was 2500 µM. Also, the EC50 in series [2] (Influenza A virus, MDCK, 48 h) stood at 5 µM. For the same compound, in series [3], the selectivity ratio was 500.
With `CCCCCCC/N=C1\C[C@H]2CC[C@]1(C)C2(C)C`, the CC50 at 48 h in series [1] was 234 µM. Further, the EC50 in series [2] (Influenza A virus, MDCK, 48 h) turned out to be 1.4 µM; in series [4] it was 4.8 µM. Besides, the selectivity ratio in series [3] was determined as 171; in series [5], 49.
Consider `NC12CC3CC(CC(C3)C1)C2` [AMANTADINE], for which the CC50 at 48 h in series [1] was 280 to 284 µM. The EC50 in series [2] (Influenza A virus, MDCK, 48 h) is 64.2 to 70 µM; in series [4] it was 72.8 µM. Further, the selectivity ratio in series [3] and in series [5] was 4 throughout.
In the case of `CC12CCC(CC1=O)C2(C)C` (centres undefined) [CAMPHOR], the EC50 was found to be 1640 µM in series [2] and 1450 µM in series [4]. Further, the selectivity ratio in series [3] and in series [5] was 2 each time.
Consider `CC(N)C12CC3CC(CC(C3)C1)C2` (centres undefined) [RIMANTADINE HYDROCHLORIDE], for which the EC50 in series [2] (Influenza A virus, MDCK, 48 h) stood at 67 µM; in series [4], 83.8 µM. Also, the selectivity ratio stood at 5 in series [3] and 4 in series [5].

Values taken from ChEMBL document CHEMBL3992495, “Aliphatic and alicyclic camphor imines as effective inhibitors of influenza virus H1N1” (Eur J Med Chem, 2017).
